Experimental data taken from patent US11299458B2, “Crystalline compounds” (OTSUKA AMERICA PHARMACEUTICAL, INC., priority 2015, dated 2022).
Values joined by “and” are separate entries in the source; they are usually repeats but may differ in a detail not shown here. Equal entries are not always repeated.

What was measured:
Format in all cases: physicochemical
[1] = Dynamic vapor sorption/desorption isotherm (moisture balance); conditions: 25° C.
Description: Based on the dynamic vapor sorption/desorption data collected (FIG. 3), Crystalline Form A obtained is a non-hygroscopic material.
Data acquisition parameters for dynamic vapor sorption/desorption isotherm: […]

[2] = Polymorph screen: crystallization, slurry, vapor stress and pH buffer experiments, XRPD result
Procedure: Antisolvent Precipitation: Solutions are prepared in various solvents and filtered through a 0.2-μm nylon filter into a vial. Antisolvent is then added until precipitation is observed. The resulting solids are isolated by vacuum filtration and analyzed.
Crash Cool (CC): Solutions are prepared in various solvents at an elevated temperature and filtered warm through a 0.2-μm nylon filter into a pre-cooled vial. The vial is placed in a (dry ice+isopropanol) cooling bath. Samples are placed into a freezer if no solids are observed to immediately precipitate. The resulting solids are isolated by vacuum filtration and analyzed.
(§1) Fast Evaporation (FE): Solutions are prepared in various solvents and sonicated between aliquot additions to assist in dissolution. Once a mixture reaches complete dissolution, as judged by visual observation, the solution is filtered through a 0.2-μm nylon filter. The filtered solution is allowed to evaporate at ambient conditions in an uncapped vial. Solutions are evaporated to dryness unless designated as partial evaporations. The solids that formed are isolated and analyzed.
Slow Cooling (SC): Solutions are prepared in various solvents at an elevated temperature. The solutions are filtered warm through a 0.2-μm nylon filter into a warm vial. The vial is capped and left on the hot plate, and the hot plate is turned off to allow the sample to cool slowly to ambient temperature. If no solids are present after cooling to ambient temperature, the sample is placed in a refrigerator and/or freezer for further cooling. Solids are collected by vacuum filtration and analyzed.
as §1, with “Slow” for “Fast”, “(SE):” for “(FE):”, “sonicated” for “sonicated between aliquot additions”, “a vial covered with aluminum foil perforated with pinholes.” for “an uncapped vial.”, “form” for “formed”
Slurry Experiments: Suspensions are prepared by adding enough solids to a given solvent so that excess solids are present. The mixture is then agitated in a sealed vial at ambient temperature or an elevated temperature. After a given period of time, the solids are isolated by vacuum filtration and analyzed.
Vapor Diffusion (VD): Solutions are prepared in various solvents and filtered through a 0.2-μm nylon filter. The filtered solution is dispensed into a 1-dram vial, which is then placed inside a 20-mL vial containing antisolvent. The 1-dram vial is left uncapped and the 20-mL vial is capped to allow vapor diffusion to occur. The resulting solids are isolated and analyzed.
Vapor Stress (VS): A solid sample is placed into a 1-dram vial. The 1-dram vial is then placed into a 20-mL vial containing solvent. The 20-mL vial is capped and left at ambient conditions for a measured time period. Samples are analyzed after removal from the stress environment.
Crystalline Form A through Form F are prepared as follows by using Crystalline Form A obtained from Example 1 above. A variety of crystallization techniques are used, including evaporation, cooling, solvent/antisolvent precipitation, slurry, vapor stress, and vapor diffusion, as described above.
Crystalline Forms D, E, and F—Crystalline Form A is dissolved in pH adjusted buffered media. Undissolved solid or precipitate observed is analyzed by XRPD. Some experiments are conducted at elevated temperature to increase solubility, the undissolved solids are also analyzed by XRPD.
Crystalline Form A from Example 5 is used to make the following crystalline forms.

[3] = Solution calorimetry (SolCal), heats of solution in methanol; conditions: methanol, 25° C., hydrochloride
Procedure: For each test, two heats of solution are obtained—one calculated using a calibration preceding the sample analysis and one calculated using a calibration following the sample analysis. Clear solutions are observed after each test.
Solution calorimetry is performed using a Thermometric 2225 Precision Solution calorimeter, a semi-adiabatic calorimeter. Solution calorimeter System v.1.2 software is used. Samples are weighed into glass crushing ampoules and are sealed using silicone rubber plugs and hot wax. Experiments are carried out in 100 mL of methanol at 25° C. The measurement of the heats of solution of the samples is both preceded and followed by calibrations using an internal heater. The heats of solution are calculated using dynamic of calibration model.

With `Cl.c1ccc2cc([C@]34CNC[C@H]3C4)ccc2c1` [Crystalline Form A, (1R,5S)-1-(naphthalen-2-yl)-3-azabicyclo[3.1.0]hexane hydrochloride] the “weight loss upon initial equilibration at 5% RH” value [1] was 0.03%, the “hygroscopicity based on dynamic vapor sorption/desorption data” value ([1]; 5% to 95% RH) was “non-hygroscopic” and the “weight gain from 5% to 95% RH” value ([1]; sorption) was 0.10%. It also gave a Weight % chg ([1]; desorption, Samp RH 4.95%) of −0.032 % chg, a Weight % chg ([1]; desorption, Samp RH 15.20%) of −0.025 % chg and a Weight % chg ([1]; desorption, Samp RH 25.12%) of −0.021 % chg. The Weight % chg ([1]; desorption, Samp RH 35.13%) was −0.016 % chg, the Weight % chg ([1]; desorption, Samp RH 45.09%) was −0.013 % chg and the Weight % chg ([1]; desorption, Samp RH 55.08%) was −0.007 % chg. The Weight % chg ([1]; desorption, Samp RH 64.96%) was 0.003 % chg, the Weight % chg ([1]; desorption, Samp RH 75.28%) was 0.019 % chg and the Weight % chg ([1]; desorption, Samp RH 85.08%) was 0.037 % chg. It also gave a Weight % chg ([1]; sorption, Samp RH 5.06%) of −0.034 % chg, a Weight % chg ([1]; sorption, Samp RH 15.24%) of −0.025 % chg and a Weight % chg ([1]; sorption, Samp RH 24.81%) of −0.024 % chg. For the same compound, the Weight % chg ([1]; sorption, Samp RH 34.82%) was −0.019 % chg, the Weight % chg ([1]; sorption, Samp RH 44.81%) was −0.016 % chg and the Weight % chg ([1]; sorption, Samp RH 54.86%) was −0.012 % chg. For the same compound, the Weight % chg ([1]; sorption, Samp RH 64.82%) was −0.005 % chg, the Weight % chg ([1]; sorption, Samp RH 74.66%) was 0.005 % chg and the Weight % chg ([1]; sorption, Samp RH 84.55%) was 0.024 % chg. The Weight % chg ([1]; sorption, Samp RH 94.54%) was 0.068 % chg, the Weight % chg ([1]; start, Samp RH 1.70%) was 0.000 % chg and the “XRPD Result” value ([2]; 1-propanol, CC (70° C. to dry ice/IPA), freezer/2 d) was “B + weak A”. For the same compound, the “XRPD Result” value ([2]; DCM, SE) was “A + B”, the “XRPD Result” value ([2]; EtOH, CC (70° C. to dry ice/IPA), freezer/2 d) was “C + weak A” and the “XRPD Result” value ([2]; EtOH, FE) was “A + B”. For the same compound, the “XRPD Result” value ([2]; EtOH, SC (70° C. to RT, refrigerator/2 d, freezer/8 d)) was “A + weak C”, the “XRPD Result” value ([2]; HFIPA/IPE, AS precipitation) was “A + weak” and the “XRPD Result” value ([2]; HFIPA, SE) was “A + weak B”. The “XRPD Result” value ([2]; IPA, CC (70° C. to dry ice/IPA), freezer/2 d, about 27 mg scale, 10 mg/mL) was “C + possible”, the “XRPD Result” value ([2]; TFE, SE) was “A + weak B” and the “average heat of solution” value ([3]; triplicate, endothermic) was 48.618 J/g. For the same compound, the “average heat of solution” value ([3]; average of three replicates) was 48.618 J/g, the “ΔH2 (heat of solution)” value ([3]; calculated using the calibration after breaking the sample vial, single replicates) was 49.905 J/g and 50.168 J/g and 49.217 J/g and the “ΔH1 (heat of solution)” value ([3]; calculated using the calibration before breaking the sample vial, single replicates) was 48.077 J/g and 46.050 J/g and 48.293 J/g. For the same compound, the “ΔHmean (heat of solution)” value ([3]; mean of the two calibrations, single replicates) was 48.991 J/g and 48.109 J/g and 48.755 J/g.
